Measured values reported in US7473418B2, “Pan cancer oncolytic vectors and methods of use thereof” (Cell Genesys, Inc., priority 2004, dated 2009).

Tests used:
LNCaP cells = experiment: In vitro combination of CG5757 and chemotherapeutic agents; type: cell-based, human
Method: (§1) Potential synergism between existing chemotherapeutic agents and the replication competent vectors of the present invention was investigated. Co-application of CG5757 with a variety of known chemotherapeutic agents was evaluated using an in vitro cell assay. A variety of known chemotherapeutic agents were tested in combination with CG5757 for their in vitro cytotoxic effect on Hep3B and LNCaP cells.

Hep3B cells = experiment: as above; type: cell-based, human
Method: as §1

SMILES	combination effect with CG5757 (LNCaP cells)	combination effect with CG5757 (Hep3B cells)	cytotoxicity (Hep3B cells; 5 ng/ml, agent alone)
CC(=O)O[C@H]1C(=O)[C@@]2(C)[C@H]([C@H](OC(=O)c3ccccc3)[C@]3(O)C[C@H](OC(=O)[C@H](O)[C@@H](NC(=O)c4ccccc4)c4ccccc4)C(C)=C1C3(C)C)[C@]1(OC(C)=O)CO[C@@H]1C[C@@H]2O [Taxol]	potential synergistic cytotoxicity		
COc1cccc2c1C(=O)c1c(O)c3c(c(O)c1C2=O)C[C@@](O)(C(=O)CO)C[C@@H]3O[C@H]1C[C@H](N)[C@H](O)[C@H](C)O1 [doxorubicin]		potential synergistic cytotoxicity	did not generate cytotoxicity
